# Data as given in US11149036B2, “3-(1H-pyrazol-4-yl)pyridine allosteric modulators of the M4 muscarinic acetylcholine receptor” (Merck Sharp & Dohme Corp., priority 2017, dated 2021).
# Biological target: T1, human M4 muscarinic acetylcholine receptor (Homo sapiens, UniProt P08173)
# T1 construct: expressed in transfected cells; host or cells: CHO-K1
# T1 sequence (P08173 1-479): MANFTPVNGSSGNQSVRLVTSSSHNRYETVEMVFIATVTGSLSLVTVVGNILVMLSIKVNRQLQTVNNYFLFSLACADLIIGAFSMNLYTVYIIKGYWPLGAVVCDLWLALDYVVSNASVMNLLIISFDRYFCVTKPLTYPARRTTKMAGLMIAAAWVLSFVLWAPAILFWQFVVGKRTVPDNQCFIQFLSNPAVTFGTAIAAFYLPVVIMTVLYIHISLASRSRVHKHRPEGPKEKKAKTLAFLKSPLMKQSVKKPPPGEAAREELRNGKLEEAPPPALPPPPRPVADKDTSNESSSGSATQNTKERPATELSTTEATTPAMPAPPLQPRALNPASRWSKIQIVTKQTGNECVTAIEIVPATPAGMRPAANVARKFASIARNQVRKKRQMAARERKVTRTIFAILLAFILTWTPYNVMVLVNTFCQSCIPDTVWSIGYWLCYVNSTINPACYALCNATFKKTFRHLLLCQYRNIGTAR
# Assay: human FLIPR-based M4 PAM assay (CHO-K1 cells with human M4 receptor and Gaqi5, calcium dye fluorescence)
# Assay type: cell-based
# Conditions: inflection point (IP) of dose response curve, acetylcholine added at 20% of maximum response, read-out: M4 FLIPPR Hu IP
# Procedure, shortened: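 CHO-K1 cells stably expressing human M4 with chimeric Gaqi5, calcium-dye loaded ~1 h at 37° C; compound added at increasing concentrations 4 min before acetylcholine at an EC20 concentration (sometimes a further EC70 addition).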
row,Compound,EC50
1,"Cc1ccc(-c2cnn(CC3C[C@H](F)[C@@H](F)C3)c2)c(-c2ccc3cccnc3c2)n1 (racemic) [Example 29, 7-(3-(1-(((3S,4S and 3R,4R)-3,4-difluorocyclopentyl)methyl)-1H-pyrazol-4-yl)-6-methylpyridin-2-yl)quinoline]",39 nM
2,"COc1cc2ccc(-c3nc(C)ccc3-c3cnn(C(F)C4CCCC4)c3F)cc2nn1 (stereo not shown) [Example 36, 7-(3-(1-(cyclopentylfluoromethyl)-5-fluoro-1H-pyrazol-4-yl)-6-methylpyridin-2-yl)-3-methoxycinnoline]",38 nM
3,"N#Cc1ccc(-c2cnn(CC3(F)CCCC3)c2)c(-c2ccn3cc(Cl)nc3c2)n1 [Example 52, 6-(2-chloroimidazol[1,2-a]pyridin-7-yl)-5-(1-((1-fluorocyclopentyl)methyl)-1H-pyrazol-4-yl)picolinonitrile]",10 nM
4,"COc1cc2ccc(-c3nc(C)ccc3-c3cnn(CC4(C)CCC(=O)C4)c3)cc2nn1 (single isomer, unassigned) [Example 148, (S or R)-3-((4-(2-(3-methoxycinnolin-7-yl)-6-methylpyridin-3-yl)-1H-pyrazol-1-yl)methyl)-3-methylcyclopentan-1-one]",67 nM
5,"c1cnc2cc(-c3nc(-n4cccn4)ccc3-c3cnn(CC4CCCC4)c3)ccc2c1 [Example 167, 7-(3-(1-(cyclopentylmethyl)-1H-pyrazol-4-yl)-6-(1H-pyrazol-1-yl)pyridin-2-yl)quinoline]",98 nM
6,"N#Cc1ccc(-c2cnn(CC3(F)CCCC3)c2)c(-c2cnc3c(c2)C(=O)N(CC2CC2)C3)n1 [Example 55, 6-(6-(cyclopropylmethyl)-5-oxo-6,7-dihydro-5H-pyrrolo[3,4-b]pyridin-3-yl)-5-(1-((1-fluorocyclopentyl)methyl)-1H-pyrazol-4-yl)picolinonitrile]",35 nM
7,"Cc1ccc(-c2cnn(CC3CCCC3)c2)c(-c2cnc3c(c2)ncn3C)n1 [Example 7, 6-(3-(1-(cyclopentylmethyl)-1H-pyrazol-4-yl)-6-methylpyridin-2-yl)-3-methyl-3H-imidazo[4,5-b]pyridine]",94 nM
